Reference: US11014961B2, “Self-labeling miniproteins and conjugates comprising them” (priority 2017, dated 2021)
No end group written: not given here.

Legend:
Format in all cases: biochemical
[1] = Labeling conversion of MP with the selection capture agent (LC-MS TIC); details: 0.5 mM CA, 0.1 mM MP, 5 mM TCEP, 1× selection buffer, pH 7.4
Method: All 10 putative self-labeling MPs were chemically synthesized (MP01 and MP02 were additionally made with the full C-terminal constant region). To determine the importance of the C-terminal tag, a kinetic analysis on MP01 was conducted comparing the sequence with and without the tag. […] The remainder of the MPs all reacted with varying second order rate constants and to differing product distributions from multiple cysteine labeling sites (Table 3). […] Of the sequences containing multiple cysteines, all reacted to differing extents. […] On the other hand, MP08 (SEQ ID NO: 53) reacted sluggishly (0.04 μM^−1 s^−1) to produce singly and doubly labeled species. The sole sequence containing three cysteines, MP05 (SEQ ID NO: 44), yielded a mixture of labeled species within an 8-hour reaction—primarily existing with either 2 or 3 labels with a rapid initial labeling process (0.93±0.11 μM^−1 s^−1). Finally, MP01, 07 and 10 (SEQ ID NOs: 13, 52, and 59, respectively) were probed via proteolytic digest-LC-MS/MS analysis, this confirmed that the cysteines were labeled and not an alternative amino acid. […] Conditions used were 0.5 mM CA, 0.1 mM MP, 5 mM TCEP, 1× selection buffer, pH 7.4.

[2] = Labeling conversion of MP with the modified capture agent (LC-MS TIC); details: 0.5 mM mCA, 0.1 mM MP, 5 mM TCEP, 1× selection buffer, pH 7.4
Method: A solution consisting of 5 mM carboxy-(PEG)12-thiol, 500 mM pentafluorophenyl sulfide, 20 mM triphenylphosphine and 230 mM DIEA in acetonitrile was vortexed and left at room temperature for 4 hours. The reaction was then diluted with 10.6× volume of 95% A: 5% B, solid phase extracted and lyophilized. The resulting material was analyzed by LCMS (method 2). This product will later be referred to as mCA (modified CA).
All 10 putative self-labeling MPs were chemically synthesized (MP01 and MP02 were additionally made with the full C-terminal constant region). To determine the importance of the C-terminal tag, a kinetic analysis on MP01 was conducted comparing the sequence with and without the tag. […] The remainder of the MPs all reacted with varying second order rate constants and to differing product distributions from multiple cysteine labeling sites (Table 3). […] Of the sequences containing multiple cysteines, all reacted to differing extents. […] On the other hand, MP08 (SEQ ID NO: 53) reacted sluggishly (0.04 μM^−1 s^−1) to produce singly and doubly labeled species. The sole sequence containing three cysteines, MP05 (SEQ ID NO: 44), yielded a mixture of labeled species within an 8-hour reaction—primarily existing with either 2 or 3 labels with a rapid initial labeling process (0.93±0.11 μM^−1 s^−1). […]

[3] = Second order rate constant of the reaction between miniprotein (MP) and capture agent (CA), LC-MS TIC peak integration; details: for Second order rate constant: 0.1 mM MP, 0.5 mM CA

MHQKYKMTKDCFFSFLAHHKKRKLYPMSG-NH2 [MP01]
conversion with selection CA [1]: 83% | conversion with modified CA (mCA) [2]: 91% | Second order rate constant ([3]; 5 mM TCEP, 1× selection buffer pH 7.4, RT): 0.34 M⁻¹ s⁻¹ | Second order rate constant ([3]; 5 mM TCEP, 1× selection buffer pH 7.4, RT, a: average of three MP concentrations, c: labeled 1-3 times, d: labeled 1-2 times): 0.34 ± 0.06^a/ M^−1 s^−1 | second order rate constant, second MP01 construct ([3]; MP01 construct with C-terminal tag (per Table 3 footnote b), standard conditions): 0.28 M⁻¹ s⁻¹ | Second order rate constant ([3]; footnote b: construct with the full length C-terminal region (-SGSLGHHHHHHRL)): 0.28 ± 0.02^b M^−1 s^−1
